From the supplement of paper PMC6965134
± gives the standard deviation of the averaged measurements.

Experiment: TIMS collisional cross section (CCS, N2) of the lipid ion; higher = larger ion cross section
Conditions: ionization mode: positive, one isomer drawn

Row | Compound | TIMS collisional cross section (sample type: HeLa) | TIMS collisional cross section (sample type: plasma) | TIMS collisional cross section (sample type: Liver)
1 | CCCCCCCC/C=C\CCCCCCCCCC(=O)O[C@H](CO/C=C\CCCCCCCCCCCCCC)COP(=O)(O)OCCN [PE P- 16:0@_20:1] (ion (formula + adduct): [C41H80NO7P+H] 1+) | 280.8 Å² |  | 
2 | CCCCC/C=C\C/C=C\C/C=C\CCCCCCC(=O)O[C@H](CO/C=C\CCCCCCCCCCCCCC)COP(=O)(O)OCCN [PE P- 16:0@_20:3] (ion (formula + adduct): [C41H76NO7P+H] 1+) | 275.1 Å² | 276.2 Å² | 
3 | CCCCC/C=C\C/C=C\C/C=C\C/C=C\CCCC(=O)O[C@H](CO/C=C\CCCCCCCCCCCCCC)COP(=O)(O)OCCN [PE P- 16:0@_20:4] (ion (formula + adduct): [C41H74NO7P+H] 1+) |  |  | 273.9 Å²
4 | CCCCC/C=C\C/C=C\C/C=C\C/C=C\CCCCCC(=O)O[C@H](CO/C=C\CCCCCCCCCCCCCC)COP(=O)(O)OCCN [PE P- 16:0@_22:4] (ion (formula + adduct): [C43H78NO7P+H] 1+) |  | 281.6 Å² | 281.6 Å²
5 | CC/C=C\C/C=C\C/C=C\C/C=C\C/C=C\C/C=C\CCC(=O)O[C@H](CO/C=C\CCCCCCCCCCCCCC)COP(=O)(O)OCCN [PE P- 16:0@_22:6] (ion (formula + adduct): [C43H74NO7P+H] 1+) | 277.3 Å² | 277.4 Å² | 
6 | CCCCCCCCCCCCCC/C=C\OC[C@H](COP(=O)(O)OCCN)OC(=O)CCCCCCCCCCCCCCC [PE P- 16:0_16:0] (ion (formula + adduct): [C37H74NO7P+H] 1+) | 272 Å² |  | 
7 | CCCCCCCC/C=C\CCCCCCCC(=O)O[C@H](CO/C=C\CCCCCCCCCCCCCCCC)COP(=O)(O)OCCN [PE P- 18:0@_18:1] (ion (formula + adduct): [C41H80NO7P+H] 1+) |  | 281.4 Å² | 
8 | CCCCC/C=C\C/C=C\CCCCCCCC(=O)O[C@H](CO/C=C\CCCCCCCCCCCCCCCC)COP(=O)(O)OCCN [PE P- 18:0@_18:2] (ion (formula + adduct): [C41H78NO7P+H] 1+) |  |  | 278 Å²
9 | CCCCC/C=C\C/C=C\C/C=C\CCCCCCC(=O)O[C@H](CO/C=C\CCCCCCCCCCCCCCCC)COP(=O)(O)OCCN [PE P- 18:0@_20:3] (ion (formula + adduct): [C43H80NO7P+H] 1+) | 283.7 ± 0.71 Å² | 282.7 Å² | 
10 | CCCCC/C=C\C/C=C\C/C=C\C/C=C\CCCC(=O)O[C@H](CO/C=C\CCCCCCCCCCCCCCCC)COP(=O)(O)OCCN [PE P- 18:0@_20:4] (ion (formula + adduct): [C43H78NO7P+H] 1+) | 281.6 Å² | 281.6 ± 0.14 Å² | 281.6 Å²
11 | CC/C=C\C/C=C\C/C=C\C/C=C\C/C=C\C/C=C\CCC(=O)O[C@H](CO/C=C\CCCCCCCCCCCCCCCC)COP(=O)(O)OCCN [PE P- 18:0@_22:6] (ion (formula + adduct): [C45H78NO7P+H] 1+) |  | 284.2 Å² | 285 Å²
12 | CCCCC/C=C\C/C=C\CCCCCCCC(=O)O[C@H](CO/C=C\CCCCCCCCCCCCCCCCCC)COP(=O)(O)OCCN [PE P- 20:0@_18:2] (ion (formula + adduct): [C43H82NO7P+H] 1+) |  | 285 Å² | 
13 | CCCCC/C=C\C/C=C\C/C=C\CCCCCCC(=O)O[C@H](CO/C=C\CCCCCCCCCCCCCCCCCC)COP(=O)(O)OCCN [PE P- 20:0@_20:3] (ion (formula + adduct): [C45H84NO7P+H] 1+) | 290.7 Å² |  | 
14 | CCCCC/C=C\C/C=C\C/C=C\C/C=C\CCCC(=O)O[C@H](CO/C=C\CCCCCCCCCCCCCCCCCC)COP(=O)(O)OCCN [PE P- 20:0@_20:4] (ion (formula + adduct): [C45H82NO7P+H] 1+) |  |  | 288.7 Å²
15 | CC/C=C\C/C=C\C/C=C\C/C=C\C/C=C\CCCC(=O)OC[C@H](COP(=O)(O)O[C@H]1C(O)C(O)C(O)[C@@H](O)C1O)OC(=O)CCCCCCCCCCCCCCCCC (some centres not stated) [PI 20:5_18:0@] (ion (formula + adduct): [C47H81O13P+H] 1+) |  | 308 Å² | 
16 | CCCCCCCCCCCCCCC(=O)OC[C@H](COP(=O)(O)OC[C@H](N)C(=O)O)OC(=O)CCCCCCCCCCCCC [PS 15:0_14:0] (ion (formula + adduct): [C35H68NO10P+Na] 1+) |  |  | 270.3 Å²
17 | CCCCCC/C=C\CCCCCCCCCC(=O)O[C@H](COC(=O)CCCCCCCCCCCCCCC)COP(=O)(O)OC[C@H](N)C(=O)O [PS 16:0_18:1@] (ion (formula + adduct): [C40H76NO10P+H] 1+) | 282.1 Å² |  | 
18 | CCCCCCCCCCC/C=C/[C@@H](O)[C@H](COP(=O)([O-])OCC[N+](C)(C)C)NC(=O)CCCCCCCCCCCCCCC [SM d16:1_16:0@] (ion (formula + adduct): [C37H75N2O6P+H] 1+) |  | 279.1 Å² | 

Row | Compound | TIMS collisional cross section (sample type: HeLa) | TIMS collisional cross section (sample type: plasma) | TIMS collisional cross section (sample type: Liver)
19 | CCCCCCCC/C=C\CCCCCCCCCCCC(=O)N[C@@H](COP(=O)([O-])OCC[N+](C)(C)C)[C@H](O)/C=C/CCCCCCCCCCC [SM d16:1_22:1@] (ion (formula + adduct): [C43H85N2O6P+H] 1+) |  | 294.45 ± 0.21 Å² | 
20 | CCCCCCCC/C=C\CCCCCCCCCCCCCC(=O)N[C@@H](COP(=O)([O-])OCC[N+](C)(C)C)[C@H](O)/C=C/CCCCCCCCCCC [SM d16:1_24:1@] (ion (formula + adduct): [C45H89N2O6P+H] 1+) |  | 299.8 Å² | 
21 | CCCCCCCC/C=C\CCCCCCCCCCCCCC(=O)N[C@@H](COP(=O)([O-])OCC[N+](C)(C)C)[C@H](O)/C=C/CCCCCCCCCCCC [SM d17:1_24:1@] (ion (formula + adduct): [C46H91N2O6P+H] 1+) | 302.1 Å² |  | 
22 | CCCCCCCCCCCCCCCCCCCCCCCC(=O)N[C@@H](COP(=O)([O-])OCC[N+](C)(C)C)[C@H](O)CCCCCCCCCCCCCCC [SM d18:0_24:0@] (ion (formula + adduct): [C47H97N2O6P+H] 1+) |  | 309.6 Å² | 
23 | CCCCCCCC/C=C\CCCCCCCC(=O)N[C@@H](COP(=O)([O-])OCC[N+](C)(C)C)[C@H](O)/C=C/CCCCCCCCCCCCC [SM d18:1@_18:1@] (ion (formula + adduct): [C41H81N2O6P+H] 1+) |  | 287.5 Å² | 
24 | CCCCCCCCCCCCC/C=C/[C@@H](O)[C@H](COP(=O)([O-])OCC[N+](C)(C)C)NC(=O)CCCCCCCCCCCCC [SM d18:1_14:0@] (ion (formula + adduct): [C37H75N2O6P+H] 1+) | 279.1 Å² |  | 
25 | CCCCCCCCCCCCC/C=C/[C@@H](O)[C@H](COP(=O)([O-])OCC[N+](C)(C)C)NC(=O)CCCCCCCCCCCCCCC [SM d18:1_16:0@] (ion (formula + adduct): [C39H79N2O6P+H] 1+) | 284.9 Å² | 285.4 Å² | 285 Å²
26 | CCCCCCCCCCCCC/C=C/[C@@H](O)[C@H](COP(=O)([O-])OCC[N+](C)(C)C)NC(=O)CCCCCCCCCCCCCCCCCCC [SM d18:1_20:0@] (ion (formula + adduct): [C43H87N2O6P+H] 1+) |  | 297 Å² | 
27 | CCCCCCCCCCCCC/C=C/[C@@H](O)[C@H](COP(=O)([O-])OCC[N+](C)(C)C)NC(=O)CCCCCCCCCCCCCCCCCCCCC [SM d18:1_22:0@] (ion (formula + adduct): [C45H91N2O6P+H] 1+) |  | 301.9 Å² | 302.3 Å²
28 | CCCCCCCC/C=C\CCCCCCCCCCCC(=O)N[C@@H](COP(=O)([O-])OCC[N+](C)(C)C)[C@H](O)/C=C/CCCCCCCCCCCCC [SM d18:1_22:1@] (ion (formula + adduct): [C45H89N2O6P+H] 1+) |  | 299 Å² | 299.3 Å²
29 | CCCCCCCCCCCCC/C=C/[C@@H](O)[C@H](COP(=O)([O-])OCC[N+](C)(C)C)NC(=O)CCCCCCCCCCCCCCCCCCCCCCC [SM d18:1_24:0@] (ion (formula + adduct): [C47H95N2O6P+H] 1+) | 308.3 Å² | 308.1 Å² | 
30 | CCCCCCCC/C=C\CCCCCCCCCCCCCC(=O)N[C@@H](COP(=O)([O-])OCC[N+](C)(C)C)[C@H](O)/C=C/CCCCCCCCCCCCC [SM d18:1_24:1@] (ion (formula + adduct): [C47H93N2O6P+H] 1+) | 305.4 ± 0.14 Å² | 305.5 Å² | 305.3 Å²
31 | CCC/C=C\CCCCCCCC/C=C/[C@@H](O)[C@H](COP(=O)([O-])OCC[N+](C)(C)C)NC(=O)CCCCCCCCCCCCC [SM d18:2_14:0@] (ion (formula + adduct): [C37H73N2O6P+H] 1+) | 275 Å² |  | 
32 | CCC/C=C\CCCCCCCC/C=C/[C@@H](O)[C@H](COP(=O)([O-])OCC[N+](C)(C)C)NC(=O)CCCCCCCCCCCCCCC [SM d18:2_16:0@] (ion (formula + adduct): [C39H77N2O6P+H] 1+) | 281.4 Å² | 281.3 Å² | 
33 | CCC/C=C\CCCCCCCC/C=C/[C@@H](O)[C@H](COP(=O)([O-])OCC[N+](C)(C)C)NC(=O)CCCCCCCCCCCCCCCCCCCCC [SM d18:2_22:0@] (ion (formula + adduct): [C45H89N2O6P+H] 1+) |  | 299.9 Å² | 
34 | CCCCCCCCCCCCCC(=O)OC[C@@H](COC(=O)CCCCCCCCCCC)OC(=O)CCCCCCCCCCC [TG 12:0_12:0_14:0] (ion (formula + adduct): [C41H78O6+NH4] 1+) | 283 Å² | 282.9 Å² | 281.3 ± 0.57 Å²
35 | CCCC/C=C\CCCCCCCC(=O)OC[C@@H](COC(=O)CCCCCCCCCCC)OC(=O)CCCCCCCCCCC [TG 12:0_12:0_14:1] (ion (formula + adduct): [C41H76O6+NH4] 1+) |  | 278.9 Å² | 
